Reference: PubChem BioAssay (NCI)
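Exposure lasted 48 hours, with cells grown in 96-well plates and compounds tested at five concentrations. TGI is the concentration that stops growth completely.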

Key:
Assay in all cases: DTP human tumour cell line panel, 48 h
[1] = tested on: HCT-116 colon
[2] = tested on: UO-31 renal
[3] = tested on: NCI/ADR-RES ovarian
[4] = tested on: EKVX NSCLC
[5] = tested on: HS 578T breast
[6] = tested on: TK-10 renal
[7] = tested on: HOP-62 NSCLC
[8] = tested on: IGROV1 ovarian
[9] = tested on: SN12C renal
[10] = tested on: KM12 colon
[11] = tested on: SNB-19 CNS
[12] = tested on: SF-539 CNS
[13] = tested on: MDA-N
[14] = tested on: T-47D breast
[15] = tested on: SK-MEL-28 melanoma
[16] = tested on: A498 renal
[17] = tested on: LOX IMVI melanoma
[18] = tested on: K-562 leukemia
[19] = tested on: HCT-15 colon
[20] = tested on: MCF7 breast
[21] = tested on: OVCAR-5 ovarian
[22] = tested on: A549 NSCLC
[23] = tested on: OVCAR-3 ovarian
[24] = tested on: 786-0 renal
[25] = tested on: MOLT-4 leukemia
[26] = tested on: SK-MEL-2 melanoma
[27] = tested on: BT-549 breast
[28] = tested on: UACC-62 melanoma
[29] = tested on: SF-268 CNS
[30] = tested on: ACHN renal
[31] = tested on: SK-MEL-5 melanoma
[32] = tested on: NCI-H226 lung
[33] = tested on: NCI-H23 lung
[34] = tested on: NCI-H460 lung
[35] = tested on: OVCAR-4 ovarian
[36] = tested on: SNB-75 CNS
[37] = tested on: RXF 393 renal
[38] = tested on: SK-OV-3 ovarian
[39] = tested on: MDA-MB-231 breast
[40] = tested on: PC-3 prostate
[41] = tested on: OVCAR-8 ovarian
[42] = tested on: M14 melanoma
[43] = tested on: CAKI-1 renal
[44] = tested on: COLO 205 colon
[45] = tested on: NCI-H522 lung
[46] = tested on: SF-295 CNS
[47] = tested on: HOP-92 NSCLC
[48] = tested on: DU-145 prostate
[49] = tested on: SW-620 colon
[50] = tested on: UACC-257 melanoma
[51] = tested on: MDA-MB-435
[52] = tested on: HCC-2998 colon
[53] = tested on: U251 CNS
[54] = tested on: RPMI-8226 leukemia
[55] = tested on: HT29 colon
[56] = tested on: CCRF-CEM leukemia
[57] = tested on: SR leukemia
[58] = tested on: HL-60(TB) leukemia
[59] = tested on: MALME-3M melanoma

SMILES: C/C(O)=C(\C=NC(=S)c1cccnc1)C(=O)Nc1ccccc1C
- TGI [1]: > 100 µM
- TGI [2]: > 100 µM
- TGI [3]: > 100 µM
- TGI [4]: > 100 µM
- TGI [5]: > 100 µM
- TGI [6]: > 100 µM
- TGI [7]: > 100 µM
- TGI [8]: > 100 µM
- TGI [9]: > 100 µM
- TGI [10]: > 100 µM
- TGI [11]: > 100 µM
- TGI [12]: > 100 µM
- TGI [13]: > 100 µM
- TGI [14]: > 100 µM
- TGI [15]: > 100 µM
- TGI [16]: > 100 µM
- TGI [17]: > 100 µM
- TGI [18]: > 100 µM
- TGI [19]: > 100 µM
- TGI [20]: > 100 µM
- TGI [21]: > 100 µM
- TGI [22]: > 100 µM
- TGI [23]: > 100 µM
- TGI [24]: > 100 µM
- TGI [25]: > 100 µM
- TGI [26]: > 100 µM
- TGI [27]: > 100 µM
- TGI [28]: > 100 µM
- TGI [29]: > 100 µM
- TGI [30]: > 100 µM
- TGI [31]: > 100 µM
- TGI [32]: > 100 µM
- TGI [33]: > 100 µM
- TGI [34]: > 100 µM
- TGI [35]: > 100 µM
- TGI [36]: > 100 µM
- TGI [37]: > 100 µM
- TGI [38]: > 100 µM
- TGI [39]: > 100 µM
- TGI [40]: > 100 µM
- TGI [41]: > 100 µM
- TGI [42]: > 100 µM
- TGI [43]: > 100 µM
- TGI [44]: > 100 µM
- TGI [45]: > 100 µM
- TGI [46]: > 100 µM
- TGI [47]: > 100 µM
- TGI [48]: > 100 µM
- TGI [49]: > 100 µM
- TGI [50]: > 100 µM
- TGI [51]: > 100 µM
- TGI [52]: > 100 µM
- TGI [53]: > 100 µM
- TGI [54]: > 100 µM
- TGI [55]: > 100 µM
- TGI [56]: > 100 µM

SMILES: CC(=O)N1C(=O)c2cc3ccccc3cc21
- TGI [1]: > 100 µM
- TGI [2]: > 100 µM
- TGI [3]: > 100 µM
- TGI [4]: > 100 µM
- TGI [5]: > 100 µM
- TGI [6]: > 100 µM
- TGI [7]: > 100 µM
- TGI [8]: > 100 µM
- TGI [9]: > 100 µM
- TGI [11]: > 100 µM
- TGI [12]: > 100 µM
- TGI [13]: > 100 µM
- TGI [14]: > 100 µM
- TGI [15]: > 100 µM
- TGI [16]: 89.4 µM
- TGI [17]: > 100 µM
- TGI [18]: > 100 µM
- TGI [19]: > 100 µM
- TGI [57]: > 100 µM
- TGI [20]: > 100 µM
- TGI [21]: > 100 µM
- TGI [22]: > 100 µM
- TGI [24]: > 100 µM
- TGI [26]: > 100 µM
- TGI [28]: > 100 µM
- TGI [29]: > 100 µM
- TGI [30]: > 100 µM
- TGI [31]: > 100 µM
- TGI [32]: > 100 µM
- TGI [33]: > 100 µM
- TGI [34]: > 100 µM
- TGI [36]: > 100 µM
- TGI [38]: > 100 µM
- TGI [39]: > 100 µM
- TGI [40]: > 100 µM
- TGI [41]: > 100 µM
- TGI [42]: > 100 µM
- TGI [44]: > 100 µM
- TGI [47]: > 100 µM
- TGI [48]: > 100 µM
- TGI [49]: > 100 µM
- TGI [51]: > 100 µM
- TGI [52]: > 100 µM
- TGI [53]: > 100 µM
- TGI [54]: > 100 µM
- TGI [58]: > 100 µM
- TGI [56]: > 100 µM

SMILES: N#C/C(=C\c1ccc([N+](=O)[O-])o1)c1n[nH]c(Cc2ccccc2)n1
- TGI [1]: 0.668 µM
- TGI [2]: 9.74 µM
- TGI [3]: 12.8 µM
- TGI [4]: 8.31 µM
- TGI [5]: 21 µM
- TGI [6]: 4.15 µM
- TGI [7]: 5.92 µM
- TGI [8]: 3.11 µM
- TGI [9]: 4.03 µM
- TGI [10]: 6.69 µM
- TGI [59]: 4.4 µM
- TGI [11]: 17.3 µM
- TGI [12]: 5.78 µM
- TGI [13]: 4.52 µM
- TGI [14]: 4.2 µM
- TGI [15]: 4.09 µM
- TGI [16]: 14.6 µM
- TGI [17]: 3.85 µM
- TGI [18]: > 22.3 µM
- TGI [20]: 7.05 µM
- TGI [21]: 3.5 µM
- TGI [22]: 15 µM
- TGI [23]: 3.01 µM
- TGI [24]: 3.85 µM
- TGI [25]: > 100 µM
- TGI [26]: 4.34 µM
- TGI [27]: 8.46 µM
- TGI [28]: 3.55 µM
- TGI [29]: 2.91 µM
- TGI [30]: 4.11 µM
- TGI [31]: 2.51 µM
- TGI [32]: 6.04 µM
- TGI [33]: 2.89 µM
- TGI [34]: 12.2 µM
- TGI [35]: 3.55 µM
- TGI [36]: 6.75 µM
- TGI [37]: 2.76 µM
- TGI [38]: 16.5 µM
- TGI [39]: 5 µM
- TGI [40]: 7.43 µM
- TGI [41]: > 25.1 µM
- TGI [42]: 3.92 µM
- TGI [43]: 3.96 µM
- TGI [44]: 2.74 µM
- TGI [45]: 1.57 µM
- TGI [46]: 20.1 µM
- TGI [47]: 5.85 µM
- TGI [48]: 3 µM
- TGI [49]: > 100 µM
- TGI [50]: 4.26 µM
- TGI [51]: 6.92 µM
- TGI [52]: 3.12 µM
- TGI [53]: 10.7 µM
- TGI [54]: 1.4 µM
- TGI [55]: 2.83 µM
- TGI [58]: 6.83 µM
- TGI [56]: 1.81 µM

SMILES: CCOC(=O)[C@@H]1ON2O[C@@H](OC3CCCCC3c3ccccc3)C[C@H]3OC(=O)[C@@H]1C32 (stereo partly specified)
- TGI [1]: > 100 µM
- TGI [2]: > 100 µM
- TGI [3]: > 100 µM
- TGI [4]: > 100 µM
- TGI [5]: > 100 µM
- TGI [6]: > 100 µM
- TGI [7]: > 100 µM
- TGI [8]: > 100 µM
- TGI [9]: > 100 µM
- TGI [10]: > 100 µM
- TGI [12]: > 100 µM
- TGI [13]: > 100 µM
- TGI [14]: > 100 µM
- TGI [16]: > 100 µM
- TGI [17]: > 100 µM
- TGI [18]: > 100 µM
- TGI [19]: > 100 µM
- TGI [57]: > 100 µM
- TGI [20]: > 100 µM
- TGI [21]: > 100 µM
- TGI [22]: > 100 µM
- TGI [23]: > 100 µM
- TGI [24]: > 100 µM
- TGI [25]: > 100 µM
- TGI [28]: > 100 µM
- TGI [29]: > 100 µM
- TGI [30]: > 100 µM
- TGI [31]: > 100 µM
- TGI [32]: > 100 µM
- TGI [33]: > 100 µM
- TGI [34]: > 100 µM
- TGI [36]: > 100 µM
- TGI [37]: > 100 µM
- TGI [38]: > 100 µM
- TGI [39]: > 100 µM
- TGI [41]: > 100 µM
- TGI [42]: > 100 µM
- TGI [43]: > 100 µM
- TGI [44]: > 100 µM
- TGI [45]: > 100 µM
- TGI [46]: > 100 µM
- TGI [47]: > 100 µM
- TGI [48]: > 100 µM
- TGI [49]: > 100 µM
- TGI [50]: > 100 µM
- TGI [51]: > 100 µM
- TGI [52]: > 100 µM
- TGI [53]: > 100 µM
- TGI [54]: > 100 µM
- TGI [55]: > 100 µM
- TGI [56]: 21.9 µM
